Where “and” joins values, the source holds several entries; their conditions need not be identical. Equal values may be shown once.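 Briefly, cells in 96-well plates were exposed to five compound concentrations for 48 h, and endpoints were estimated by linear interpolation. At the GI50, growth is halved. The concentration for full growth arrest is given as TGI.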 Bounds are passed on as bounds.

Holding throughout (test): NCI tumour cell line growth inhibition, 48 h
Test [1] relates to CCRF-CEM leukemia.
The subject of test [2] is COLO 205 colon.
Test [3] deals with HCT-116 colon.
Test [4] concerns HCT-15 colon.
The test system of test [5] is HOP-92 NSCLC.
Test [6] concerns MOLT-4 leukemia.
Test [7] relates to OVCAR-5 ovarian.
Test [8] relates to SF-295 CNS.
Test [9] has as its system SK-MEL-5 melanoma.
In test [10] the test system is SW-620 colon.
Test [11] deals with U251 CNS.
The test system of test [12] is DU-145 prostate.
Test [13] relates to T-47D breast.
The test system of test [14] is HS 578T breast.

Regarding `N.N.N.O=[N+]([O-])[O-].O=[N+]([O-])[O-].O=[N+]([O-])[O-].O=[N+]([O-])[O-].[Co+3]`, the TGI in test [1], in test [2], in [3], in test [4], in [5] and in test [6] was > 100 µM each time. Also, the TGI in test [7], in [8], in test [9], in test [10] and in test [11] was > 100 µM in each case.

For `CC1(C)OCC(COC(=O)C=[N+]=[N-])O1` (stereo not drawn), the TGI in [1], in test [2], in test [12], in [3], in test [4] and in test [5] was > 100 µM throughout. Also, the TGI in test [6], in [7], in [8], in test [9], in [10] and in test [11] was > 100 µM in each case.

On to `Cc1ccc(-c2c(C#N)c(-c3ccccc3)n(NS(=O)(=O)c3ccccc3)c(=O)c2C#N)cc1`, for which the TGI in test [1] is > 100 µM; in test [2], > 100 µM; in [3], > 100 µM; in test [4] it was > 100 µM; in test [5], > 100 µM; in test [6] it was 72.6 µM. Further, the TGI in test [7], in test [8], in test [9], in test [10] and in [11] was > 100 µM throughout.

With `Cc1nnc(Nc2ccccc2)o1`, the TGI in test [1], in test [2], in [12], in test [3], in test [4] and in test [6] was > 100 µM each time. Also, the TGI in test [7], in test [8], in test [9], in test [10], in test [13] and in test [11] was > 100 µM in each case.

Regarding `c1ccc(C2C3=C(Nc4ncnn42)c2ccccc2C3)cc1` (stereo not drawn), the TGI was > 100 µM in test [1]; 25.8 µM in test [2]; > 100 µM in test [3]; > 100 µM in test [4]; > 100 µM in [5]; > 100 µM in test [6]. The TGI is > 100 µM in test [7]; > 100 µM in [8]; > 100 µM in test [9]; 17.4 µM in [10]; 17.7 µM in test [11].

Regarding `CC(=O)OCC1OC(OC(C)(C)CC/C=C(\C)[C@@H]2C/C=C(\C)CC/C=C(\C)CC2)C(O)C(O)C1OC(C)=O` (stereo partly drawn), the TGI in test [1] was 20.8 µM and 67 µM; in test [2] it was 76.9 µM and 32.5 µM; in [12] it was > 100 µM and 32.1 µM; in [3] it was > 60.1 µM and 60.9 µM; in [4], > 100 µM and 29.2 µM; in test [5], > 100 µM and 35 µM. The TGI in test [14] is 30.5 µM; in test [6], 49.1 µM; in test [7], > 100 µM and 34.1 µM; in test [8], > 100 µM and 42.4 µM; in [9], > 83.7 µM and 34.6 µM; in test [10] it was > 31.6 µM and 50.7 µM. Moreover, the TGI in test [11] is > 100 µM. For the same compound, the GI50 in test [2] is 35.7 µM and 15.8 µM; in test [12], > 76.3 µM and 17 µM; in test [4], 49.4 µM and 14.2 µM; in [5], > 81.2 µM and 17.5 µM; in test [7] it was > 100 µM and 16.6 µM; in [11] it was 39.3 µM.

For `COC(=O)C(CCC#N)(CCC#N)C(=O)OC`, the TGI in test [1], in test [2], in test [3], in test [4], in test [6] and in test [8] was > 100 µM in each case. The TGI in test [9], in test [10] and in [11] was > 100 µM throughout.

In the case of `O=C(CCCCCCCCC(=O)NN1C(=O)/C(=C\c2ccc(O)c(O)c2)SC1c1ccc(Cl)cc1)NN1C(=O)/C(=C\c2ccc(O)c(O)c2)SC1c1ccc(Cl)cc1` (stereo not drawn), the TGI in [2] was > 100 µM; in test [12], 81.1 µM; in test [3] it was > 100 µM; in test [4] it was > 100 µM; in [5], 43.8 µM; in test [6], 15.3 µM. Further, the TGI in [7] was > 100 µM; in test [8], 48.1 µM; in [9], > 100 µM; in [10], > 100 µM; in test [13], > 100 µM; in test [11] it was > 55.1 µM.

As to `CCOC(=O)CNC(=O)C(CSCc1ccc(Br)cc1)NC(=O)CCC(N)C(=O)OCC` (stereo not drawn), the TGI in test [1], in test [2], in test [12], in [3], in [4] and in [5] was > 50 µM each time. Further, the TGI in test [14], in test [6], in test [7], in test [8], in test [9] and in test [10] was > 50 µM each time. Also, in [11], the TGI was > 50 µM.

For the compound `S=C(N/N=C\C=N/NC(=S)N1CCCCC1)N1CCCCC1`, the TGI is > 100 µM in test [2]; > 100 µM in test [12]; > 100 µM in test [3]; > 100 µM in test [4]; 45.8 µM in test [5]; > 51.9 µM in [14]. Also, the TGI in test [7] is > 100 µM; in test [8] it was > 77.8 µM; in test [9], > 32.4 µM; in test [10], > 100 µM; in test [11], > 100 µM.

As to `O=C(/C=C/c1ccc(O)c([N+](=O)[O-])c1)CC(=O)/C=C/c1ccc(O)c([N+](=O)[O-])c1`, the TGI in test [1], in test [2], in test [12], in [3], in [4] and in test [14] was > 100 µM in each case. The TGI was > 100 µM in test [7]; > 100 µM in test [8]; > 100 µM in [9]; > 100 µM in test [10]; 55.3 µM in [11].

Regarding `COC(=O)CC(C(C(=O)OC)C(=O)OC)N1C(=O)OCC1c1ccccc1` (stereo not drawn), the TGI in test [1], in [2], in test [3], in test [4], in test [5] and in test [6] was > 100 µM each time. Besides, the TGI in test [7], in [8], in test [9], in [10] and in test [11] was > 100 µM throughout.

On to `Nc1nc2cc3nc(N)c(N)nc3cc2nc1N`, for which the TGI in test [1], in [2], in [12], in test [3], in test [4] and in test [14] was > 100 µM throughout. The TGI in [6], in test [7], in test [8], in [9], in test [10] and in test [11] was > 100 µM throughout.

As for `CC1=C(O)C(=O)[C@@H]2O[C@@H]2C1=O`, the TGI in test [1] came out at 8.09 µM; in test [2], 16 µM; in test [3], 27.8 µM; in [4], 22 µM; in test [5], 17.1 µM; in test [6] it was 10.9 µM. Moreover, the TGI was 33.9 µM in test [7]; 72.1 µM in test [8]; 30.1 µM in test [9]; 13.4 µM in [10]; 46.3 µM in test [11].

As for `O=c1[nH]n2c(=O)cc[nH]c2c1-c1nnns1`, the TGI in test [1], in test [2], in [3], in test [4], in [5] and in test [6] was > 100 µM each time. Besides, the TGI in test [7], in test [8], in test [9], in test [10] and in test [11] was > 100 µM each time.

For `NC(N)=NS(=O)(=O)c1ccc(NCc2c3ccccc3[n+]([O-])c3ccccc23)cc1`, the TGI in [1] is 84.4 µM; in test [2] it was > 100 µM; in test [3], 31.9 µM; in [4], 74.4 µM; in test [5], 28.5 µM; in [6], 43.8 µM. Also, the TGI in test [7] is > 100 µM; in test [8], > 100 µM; in test [9], 33.5 µM; in test [10], > 100 µM; in test [11], > 100 µM.

With `COc1ccc(C(C#N)NNC(=O)c2ccccc2O)cc1OC` (stereo not drawn), the TGI in test [1], in test [2], in test [3], in test [4], in test [6] and in test [7] was > 100 µM each time. For the same compound, the TGI is > 100 µM in [8], 46.9 µM in test [9], > 100 µM in test [10] and > 100 µM in test [11].
